# Assay results as given in patent publication US20140357512A1, “HISTONE DEACETYLASE (HDAC) BIOMARKERS IN MULTIPLE MYELOMA” (priority 2013, published 2014).
# Test system: human myeloma cell line MM.1S
# Experiment: SILAC acetylated-lysine peptide profiling, HDAC inhibitor vs DMSO (light/heavy ratio)
# Type: cell-based
# Excerpt: An embodiment of the invention comprises utilizing the SILAC method in order to quantitate changes in protein expression between two or more populations of cells. The SILAC method is a technique based on mass spectrometry that detects differences in protein abundance among samples using non-radioactive isotopic labeling. The SILAC method is known in the art, and described in detail in Ong et al., “Stable Isotope Labeling by Amino Acids in Cell Culture, SILAC, as a Simple and Accurate Approach to Expression Proteomics”, Molecular & Cellular Proteomics, vol. 1, pp. 376-386 (2002), which is incorporated herein by reference in its entirety.
# Briefly, the SILAC method involves growing two populations of cells in cell culture. The first population of cells is grown in growth media containing normal amino acids (“normal media”). The second population of cells is grown in media lacking a standard essential amino acid (such as lysine), but is then supplemented with a non-radioactive, isotopically labeled form of that essential amino acid (such as lysine labeled with ^13C atoms, rather than normal ^12C atoms), which is called “heavy media”. When the two populations of cells are each growing in the medium, they incorporate the amino acids into all of their proteins. The growth of cells maintained in the heavy media is no different from that in normal media. All peptides containing the heavy amino acids are heavier than their normal counterparts. The cells from each of the two populations of cells are lysed. The lysates from each of the two cell populations are then combined. The combined cell lysates are then analyzed by mass spectrometry. Pairs of chemically identical peptides of different stable isotope composition can be differentiated in a mass spectrometer due to their difference in mass. The ratio of peak intensities in the mass spectrum for such peptide pairs reflects the abundance ratio for the two proteins.
# This example describes SILAC studies that were performed to compare the effects of three different HDAC inhibitors (Compound A, Compound B, and tubastatin A) to a control on a human multiple myeloma cell line. The HDAC inhibitors were also compared amongst themselves to determine differences in their effects.
# A human myeloma cell line MM.1S was grown using either ^12C (light) or ^13C (heavy) lysine containing culture medium. The “heavy” cells were treated with DMSO as the control, and the “light” cells were treated with a single HDAC inhibitor at 37° C. for 6 hours. The heavy and light cells were lysed, and the lysates were mixed in 1:1 ratio and digested with the protease trypsin. The acetylated lysine containing peptides (due to the action of the HDAC inhibitor) in the digested peptide pool were captured by a non-specific anti-acetylated lysine antibody cocktail (the antibodies identify both light and heavy acetylated peptides), and subjected to mass spectrometry analysis in order to identify thousands of individual peptides.
# Thousands of peptides were identified in pairs (^12C and ^13C) due to their known mass differences. The amino acid sequence and quantitative ratio (Light/Heavy) of a given peptide in two differentially treated cell lysates were then determined and annotated with their possible protein (gene) sources.
# As stated above, three HDAC inhibitors (Compound A, Compound B, and Tubastatin A) were used. Thus, the SILAC method was performed three times, with a different HDAC inhibitor compared to a control each time. Accordingly, there are three pairs of quantitative data in the table below, i.e., Compound A:DMSO, Compound B:DMSO, and Tubastatin A:DMSO. A cut-off of 1.30 fold of change (increase or decrease) was then used to determine “changed” or “+” in the table, and any peptides with a fold of change less than 1.3 fold were determined to be “unchanged” or “0” in the table. Those peptides that were not identified were marked as “NA” in the table. […]
smiles,measurement,setting,value
CN1CCc2c(c3ccccc3n2Cc2ccc(C(=O)NO)cc2)C1 [Tub A],light to heavy ratio (L/H ratio) of acetylated peptide AVDCLLDSK(ac)WAK (SEQ ID NO: 518),"Translocation protein SEC62 [60], gene SEC62, inhibitor:DMSO",0.00 log 2
same,light to heavy ratio (L/H ratio) of acetylated peptide VK(ac)FIHDQTSPNPK (SEQ ID NO: 562),"Tricarboxylate transport protein mitochondrial [149], gene SLC25A1, inhibitor:DMSO",0.00 log 2
same,"light to heavy ratio (L/H ratio), log 2 scale, acetylated peptide FGAPQK(ac)DVK (SEQ ID NO: 788)","Trifunctional enzyme subunit alpha mitochondrial [359], gene HADHA, drug:DMSO",0.00
same,"light to heavy ratio (L/H ratio), log 2 scale, acetylated peptide ILQEGVDPK(ac)K (SEQ ID NO: 789)","Trifunctional enzyme subunit alpha mitochondrial [569], gene HADHA, drug:DMSO",0.00
same,light to heavy ratio (L/H ratio) of acetylated peptide VPGK(ac)DTVTK (SEQ ID NO: 308),"Trifunctional enzyme subunit beta mitochondrial [272], HADHB, drug:DMSO",0.40 log 2
same,L/H ratio of acetylated peptide VVVTK(ac)YCDPDSYHR (SEQ ID NO: 114),"U2AF2 [462], log 2 scale, drug vs DMSO",−0.43
same,L/H ratio of acetylated peptide,"VAILK(ac)ANLR (SEQ ID NO: 488), Transitional endoplasmic reticulum ATPase [658], VCP",0.00 log 2
same,"light to heavy ratio (L/H ratio) of acetylated peptide, log 2 scale","VALEIFQHSK(ac)YK (SEQ ID NO: 183), Isoform 2 of 39S ribosomal protein L39 mitochondrial [234], MRPL39",0.64
same,L/H ratio of acetylated peptide FGIAAK(ac)YQIDPDACFSAK (SEQ ID NO: 115),"VDAC1 [224], log 2 scale, drug vs DMSO",0.47
same,L/H ratio of acetylated peptide YK(ac)WCEYGLTFTEK (SEQ ID NO: 116),"VDAC2 [63], log 2 scale, drug vs DMSO",0.59
same,L/H ratio of acetylated peptide (ac)CNTPTYCDLGK(ac)AAK (SEQ ID NO: 6),"VDAC3 [12], log 2 scale, drug vs DMSO",0.52
same,L/H ratio of acetylated peptide YK(ac)VCNYGLTFTQK (SEQ ID NO: 117),"VDAC3 [63], log 2 scale, drug vs DMSO",0.40
same,L/H ratio of acetylated peptide,"VIIVVK(ac)DGPGFYTTR (SEQ ID NO: 401), Trifunctional enzyme subunit alpha mitochondrial [540], HADHA",0.00 log 2
same,L/H ratio of acetylated peptide TNEK(ac)VELQELNDR (SEQ ID NO: 122),"VIM [104], log 2 scale, drug vs DMSO",−0.59
same,L/H ratio of acetylated peptide FANYIDK(ac)VR (SEQ ID NO: 118),"VIM [120], log 2 scale, drug vs DMSO",−0.65
same,L/H ratio of acetylated peptide ILLAELEQLK(ac)GQGK (SEQ ID NO: 119),"VIM [139], log 2 scale, drug vs DMSO",−0.82
same,L/H ratio of acetylated peptide SK(ac)FADLSEAANR (SEQ ID NO: 121),"VIM [294], log 2 scale, drug vs DMSO",−0.60
same,L/H ratio of acetylated peptide LQDEIQNMK(ac)EEMAR (SEQ ID NO: 120),"VIM [373], log 2 scale, drug vs DMSO",−0.72
same,"light to heavy ratio (L/H ratio) of acetylated peptide, log 2 scale","VLK(ac)GNTAEGCVHETQEK (SEQ ID NO: 186), Isoform 1 of Myb-binding protein 1A [935], MYBBP1A",−0.43
same,"light to heavy ratio (L/H ratio) of acetylated peptide, log 2 scale","VLPSIVNEVLK(ac)SVVAK (SEQ ID NO: 195), Prohibitin-2 [142], PHB2",1.00
same,"light to heavy ratio (L/H ratio) of acetylated peptide, log 2 scale","VNLQNNPGAMEHFHMK(ac)LFR (SEQ ID NO: 136), B-cell receptor-associated protein 31 [95], BCAP31",0.52
same,"light to heavy ratio (L/H ratio) of acetylated peptide, log 2 scale","VTEK(ac)IPVR (SEQ ID NO: 168), Isoform Short of Heterogeneous nuclear ribonucleoprotein U [324], HNRNPU",−0.76
same,"light to heavy ratio (L/H ratio) of acetylated peptide, log 2 scale","VVVGK(ac)TFDSIVMDPK (SEQ ID NO: 193), Protein disulfide-isomerase A4 [533], PDIA4",−0.80
same,light to heavy ratio (L/H ratio) of acetylated peptide DLQQYQSQAK(ac)QLFR (SEQ ID NO: 321),"Vesicle-trafficking protein SEC22b [38], SEC22B, drug:DMSO",0.46 log 2
same,light to heavy ratio (L/H ratio) of acetylated peptide TLLIK(ac)TVETR (SEQ ID NO: 269),"Vimentin [445], VIM, drug:DMSO",−0.54 log 2
same,"light to heavy ratio (L/H ratio) of acetylated peptide, log 2 scale","WVFK(ac)EEGVLR (SEQ ID NO: 150), Dolichyl-diphosphooligosaccharide--protein glycosyltransferase 48 kDa subunit [301], DDOST",−0.53
same,light to heavy ratio (L/H ratio) of acetylated peptide KQELLEALTK(ac)HFQD (SEQ ID NO: 355),"X-ray repair cross-complementing protein 6 [605], XRCC6, drug:DMSO",0.00 log 2
same,L/H ratio of acetylated peptide ALQEK(ac)VEIK (SEQ ID NO: 123),"XRCC5 [665], log 2 scale, drug vs DMSO",−0.46
same,"light to heavy ratio (L/H ratio) of acetylated peptide, log 2 scale","YGPFVADFADK(ac)LNEQK (SEQ ID NO: 134), ATP synthase subunit b mitochondrial [126], ATP5F1",−0.45
same,"light to heavy ratio (L/H ratio) of acetylated peptide, log 2 scale","YIAK(ac)QESVEER (SEQ ID NO: 140), Isoform 3 of Coiled-coil domain-containing protein 144A [754], CCDC144A",−0.42
same,"light to heavy ratio (L/H ratio) of acetylated peptide, log 2 scale","YLENGK(ac)ETLQR (SEQ ID NO: 163), Putative HLA class I histocompatibility antigen alpha chain H [200], HLA-H",−0.46
same,"light to heavy ratio (L/H ratio) of acetylated peptide, log 2 scale","YLLYGEK(ac)GTGK (SEQ ID NO: 147), 28S ribosomal protein S29 mitochondrial [130], DAP3",0.46
same,light to heavy ratio (L/H ratio) of acetylated peptide YFLDK(ac)TLTSR (SEQ ID NO: 293),"[3-methyl-2-oxobutanoate dehydrogenase [lipoamide]] kinase mitochondrial [192], BCKDK, drug:DMSO",0.50 log 2
same,"light to heavy ratio (L/H ratio) of acetylated peptide, log 2 scale","[…](ac)PER (SEQ ID NO: 219), cDNA FLJ59739 highly similar to Protein transport protein Sec61 subunit alpha isoform 1 [27], SEC61A1",0.49
same,light to heavy ratio (L/H ratio) of acetylated peptide SAYFAEK(ac)LYK (SEQ ID NO: 292),"annexin A4 [255], ANXA4, drug:DMSO",0.62 log 2
same,light to heavy ratio (L/H ratio) of acetylated peptide ILMSK(ac)PVLSGGTGR (SEQ ID NO: 291),"cDNA FLJ55380 highly similar to Protein kinase C-binding protein 1 [440], ZMYND8, drug:DMSO",0.65 log 2
same,light to heavy ratio (L/H ratio) of acetylated peptide YDGK(ac)WEVEEMK (SEQ ID NO: 274),"cDNA FLJ55574 highly similar to Calnexin [138], CANX, drug:DMSO",−0.49 log 2
same,light to heavy ratio (L/H ratio) of acetylated peptide LNK(ac)PFLFDTK (SEQ ID NO: 327),"cDNA FLJ55574 highly similar to Calnexin [172], CANX, drug:DMSO",0.00 log 2
same,light to heavy ratio (L/H ratio) of acetylated peptide LLASK(ac)SLLNR (SEQ ID NO: 322),"cDNA FLJ56303 highly similar to Translocon-associated protein subunit beta [46], SSR2, drug:DMSO",−0.59 log 2
same,light to heavy ratio (L/H ratio) of acetylated peptide IINEVSK(ac)PLAHHIPVEK (SEQ ID NO: 341),"cDNA FLJ77177 highly similar to Homo sapiens arginine-rich mutated in early stage tumors (ARMET) mRNA [97], MANF, drug:DMSO",0.00 log 2
same,light to heavy ratio (L/H ratio) of acetylated peptide TNVPVK(ac)LFAR (SEQ ID NO: 348),"cDNA FLJ77422 highly similar to Homo sapiens RNA binding protein autoantigenic (hnRNP-associated with lethal yellow homolog (mouse)) transcript variant 1 mRNA (Fragment) [165], RALY, drug:DMSO",0.00 log 2
same,light to heavy ratio (L/H ratio) of acetylated peptide GSK(ac)FYGPAGPYGIFAGR (SEQ ID NO: 265),"membrane-associated progesterone receptor component 2 [159], PGRMC2, drug:DMSO",−0.45 log 2
same,light to heavy ratio (L/H ratio) of acetylated peptide SK(ac)SDPIMLLK (SEQ ID NO: 255),"pyruvate dehydrogenase E1 component subunit alpha somatic form mitochondrial isoform 2 precursor [351], PDHA1, drug:DMSO",0.52 log 2
same,light to heavy ratio (L/H ratio) of acetylated peptide LTSLNVK(ac)YNNDK (SEQ ID NO: 590),"regulator of differentiation 1 isoform 2 [236], gene ROD1, inhibitor:DMSO",0.00 log 2
same,light to heavy ratio (L/H ratio) of acetylated peptide GWLK(ac)SNVSDAVAQSTR (SEQ ID NO: 278),"triosephosphate isomerase isoform 2 [231], TPI1, TPI1P1, drug:DMSO",−0.41 log 2
